The text below walks through data of ChEMBL document CHEMBL1127702, “A proposed model of bradykinin bound to the rat B2 receptor and its utility for drug design” (J Med Chem, 1994).

Where a SMILES comes first, the peptide text is derived from it. [ ]: non-standard residue; d: D form. Oic = O=C(O)[C@@H]1C[C@@H]2CCCC[C@@H]2N1; Hyp = O=C(O)[C@@H]1C[C@@H](O)CN1; dTic = O=C(O)[C@H]1Cc2ccccc2CN1

Assay [1] is filed under the species Cavia porcellus. Briefly: Compound was tested for bradykinin-induced contractions in guinea pig ileum. The note with it: read-out: pA2 (converted). In kind it is functional.
In assay [2] the target is T1, B2 bradykinin receptor (Cavia porcellus, UniProt O70526).
T1 sequence (O70526 whole entry): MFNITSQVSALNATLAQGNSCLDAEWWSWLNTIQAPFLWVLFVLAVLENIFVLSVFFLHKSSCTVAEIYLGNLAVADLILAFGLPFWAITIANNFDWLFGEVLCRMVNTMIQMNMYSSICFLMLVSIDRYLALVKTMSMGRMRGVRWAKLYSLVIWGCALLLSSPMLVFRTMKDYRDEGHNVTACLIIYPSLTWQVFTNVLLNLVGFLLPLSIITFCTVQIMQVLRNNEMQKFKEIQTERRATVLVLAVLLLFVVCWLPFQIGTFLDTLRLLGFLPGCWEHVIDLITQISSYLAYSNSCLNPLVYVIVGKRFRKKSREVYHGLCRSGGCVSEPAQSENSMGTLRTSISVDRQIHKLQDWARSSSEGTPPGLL
Put plainly: Binding affinity towards bradykinin receptor B2 using [3H]bradykinin.

For `NC(N)=NCCC[C@@H](N)C(=O)N[C@@H](CCCN=C(N)N)C(=O)N1CCC[C@H]1C(=O)N1C[C@H](O)C[C@H]1C(=O)NCC(=O)N[C@@H](Cc1ccccc1)C(=O)N[C@@H](CO)C(=O)N1Cc2ccccc2C[C@@H]1C(=O)N1[C@H](C(=O)N[C@@H](CCCN=C(N)N)C(=O)O)C[C@@H]2CCCC[C@@H]21` (H-[dR]RP[Hyp]GFS[dTic][Oic]R-OH), in assay [1], the Kb was 1.58 nM. In addition, affinity in assay [2] was put at a Ki of 0.11 nM.
